Measurements reported in US9131694B2, “Insecticidal pyridine compounds” (Dow AgroSciences, LLC, priority 2009, dated 2015).

Columns and labels:
[1] = test system: Beet Armyworm (Spodoptera exigua); experiment: Insecticidal test for beet armyworm, treated lepidopteran diet; type: in vivo; conditions: 2000 ppm test solution, 50 μL per well on diet (50 g/cm^2 dose), second-instar larvae, observed 2 and 5 days after treatment
Method: Insecticidal Test for Beet Armyworm (Spodoptera exigua). To prepare test solution, the test compound was formulated at 2000 ppm solution in 2 mL of 9 acetone: 1 tap water. 50 μL of the test solution ([…] dose for each well) was pipetted upon the surface of 1 mL of lepidopteran diet (Southland Multi-Species Lepidopteran Diet) contained in each of eight wells per insect species (one well=1 replication). A second-instar beet armyworm was placed upon the treated diet in each well (one insect per well) once the solvent had air-dried. Trays containing the treated diet and larvae were covered and then held in a growth chamber at 25° C., 50-55% RH, and 16 hr light:8 hr dark for 5 days. Observation were conducted 2 and 5 days after treatment and infestation to score the number of dead insects per 8-well treatment. The results of this test are set forth in the column labelled “Beet Armyworm” in Table 1 below, in which letter designations represent ranges of percent control as set forth above.

[2] = test system: Green Peach Aphid (Myzus persicae); experiment: Insecticidal test for green peach aphid in foliar spray assay on cabbage seedlings; type: in vivo; conditions: 200 ppm foliar spray on infested cabbage seedlings, graded after three days
Method: Insecticidal Test for Green Peach Aphid (Myzus persicae) in Foliar Spray Assay Cabbage seedlings grown in 3-inch pots, with 2-3 small (3-5 cm) true leaves, were used as test substrate. The seedlings were infested with 20-50 green peach aphids (wingless adult and nymph) 1-2 days prior to chemical application. Four seedlings were used for each treatment. Selected compounds (2 mg), many of which are described above, were dissolved in 2 ml of acetone:methanol (1:1) solvent, forming stock solutions of 1000 ppm. The stock solutions were diluted 5× with 0.025% Tween 20 in H2O to obtain a solution at 200 ppm. A hand-held Devilbiss aspirator sprayer was used for spraying a solution to both sides of cabbage leaves until runoff. Reference plants (solvent check) were sprayed with the diluent only. Treated plants were held in a holding room for three days at approximately 23° C. and 40% relative humidity prior to grading. Evaluation was conducted by counting the number of live aphids per plant under a microscope. Insecticidal activity was measured by using Abbott's correction formula: Corrected % Control=100*(X−Y)/X • where • X=No. of live aphids on solvent check plants • Y=No. of live aphids on treated plants The results of this test are set forth in the column labelled “Green Peach Aphid” in Table 1 below, in which letter designations represent ranges of percent control as follows: • A=80-100% control • B=60-79% control • C=40-59% control • D=20-39% control • E=0-19% control

Structure (SMILES)	Beet Armyworm percent control [1]	Green Peach Aphid percent control (Abbott corrected % control) [2]
FC(F)(F)c1cc(-n2c(-c3ccccn3)nc3ccccc32)nc(Cl)c1Cl	D (D=20-39% control)	D (D=20-39% control)
FC(F)(F)c1cc(N2CCCC2c2ccccn2)nc(Cl)c1Br (stereo not drawn)	E (E=0-19% control)	D (D=20-39% control)
FC(F)(F)c1cc(N2CCCC2c2ccccn2)ncc1Cl (stereo not drawn)	D (D=20-39% control)	E (E=0-19% control)
FC(F)(F)c1c(Cl)cnc(N2CCCC2c2ccccn2)c1Cl (stereo not drawn)	B (B=60-79% control)	E (E=0-19% control)
FC(F)(F)c1cc(N2CCCC2c2ccccn2)nc(Cl)c1Cl (stereo not drawn) [Compound 1, 6-[2-(2-Pyridyl)-1-pyrrolidinyl]-4-trifluoromethyl-2,3-dichloropyridine]	B (B=60-79% control)	A (A=80-100% control)
FC(F)(F)c1cc(Cl)nc(N2CCCC2c2ccccn2)c1Cl (stereo not drawn) [Compound 2, 6-[2-(2-pyridyl)-1-pyrrolidinyl]-4-trifluoromethyl-2,5-dichloropyridine]	B (B=60-79% control)	C (C=40-59% control)
FC(F)(F)c1cc(N2CCCCC2c2ccccn2)nc(Cl)c1Cl (stereo not drawn) [Compound 6]	A (A=80-100% control)	D (D=20-39% control)
C[Si](C)(C)c1c(C(F)(F)F)cc(N2CCCC2c2ccccn2)nc1Cl (stereo not drawn) [Compound 10]	E (E=0-19% control)	E (E=0-19% control)
CC(C)C1COC(c2ccccn2)N1c1cc(C(F)(F)F)c(C#N)c(Cl)n1 (stereo not drawn) [Compound 12, 2-chloro-6-[4-isopropyl-2-(2-pyridyl)oxazolidin-3-yl]-4-(trifluoromethyl)pyridine-3-carbonitrile]	E (E=0-19% control)	D (D=20-39% control)
CC1COC(c2ccccn2)N1c1cc(C(F)(F)F)c(C#N)c(Cl)n1 (stereo not drawn) [Compound 16, 2-chloro-6-[4-methyl-2-(2-pyridyl)oxazolidin-3-yl]-4-(trifluoromethyl)pyridine-3-carbonitrile]	E (E=0-19% control)	E (E=0-19% control)
N#Cc1c(C(F)(F)F)cc(N2C(c3ccccc3)COC2c2ccccn2)nc1Cl (stereo not drawn) [Compound 18, 2-chloro-6-[4-phenyl-2-(2-pyridyl)oxazolidin-3-yl]-4-(trifluoromethyl)pyridine-3-carbonitrile]	E (E=0-19% control)	E (E=0-19% control)
CCC1CN(c2cc(C(F)(F)F)c(C#N)c(Cl)n2)C(c2ccccn2)O1 (stereo not drawn) [Compound 19, 2-Chloro-6-[5-ethyl-2-(2-pyridyl)oxazolidin-3-yl]-4-(trifluoromethyl)pyridine-3-carbonitrile]	C (C=40-59% control)	C (C=40-59% control)
